Test system: streptozotocin (STZ)-induced peripheral neuropathic pain (DPNP) in diabetic rat models
Assay: Efficacy test in diabetic peripheral neuropathic pain (DPNP), Von Frey pain threshold
Assay type: in vivo, SD rats
Settings: for MWT (g) After modeling: before administration; for MWT (g) 2h: 2 h after administration; for MWT (g) 4 h: 4 h after administration; for MWT (g) 5 h: 5 h after administration; for MWT (g) 6h: 6 h after administration; for duration of analgesia: time after administration
Procedure: Experimental methods: After the adaptation period, the rats were tested for baseline plantar pain threshold using the Von Frey (Up-Down method) before modeling. Subsequently, except for the blank control group, all other rats were fasted for 16 hours with free access to water and then intraperitoneally injected with streptozotocin for modeling (65 mg/kg; 2 mL/kg). One week after modeling, blood was collected from the tail tip to detect blood glucose levels after a 4-hour fast. Rats with blood glucose levels higher than 16.7 mmol/L were considered diabetic.

Q: How did the “MWT (g) After modeling” value (0.5 mg/kg group, x±s, n=5) turn out when CC(C)C[C@](C)(N)COc1ccc(-c2c[nH]c3ncc(F)cc23)nc1C(F)F [Compound 26, (S)-1-{[2-(difluoromethyl)-6-(5-fluoro-1H-pyrrolo[2,3-b]pyridin-3-yl)pyridin-3-yl]oxy}-2,4-dimethylpentan-2-amine] was run?
A: The value was 6.97 ± 2.16 g.

Q: What about the “Pain threshold improvement rate 2h” value (0.5 mg/kg single ig.) of the same compound?
A: The value was 50.87.

Q: And the “MWT (g) 2h” value (0.5 mg/kg single ig., x±s, n=5)?
A: Its value is 7.50 ± 2.37 g.

Q: What about the “Pain threshold improvement rate 3 h” value (0.5 mg/kg single ig.) of the same compound?
A: Its value is 54.93.

Q: What about the “MWT (g) 3 h” value (0.5 mg/kg single ig., 3 h after administration, x±s, n=5) of the same compound?
A: The value was 9.63 ± 3.40 g.

Q: What about the “Pain threshold improvement rate 4h” value (0.5 mg/kg single ig.) of the same compound?
A: The value was 35.29.

Q: What about the “MWT (g) 4 h” value (0.5 mg/kg single ig., x±s, n=5) of the same compound?
A: Its value is 6.23 ± 2.10 g.

Q: And the “Pain threshold improvement rate 5 h” value (0.5 mg/kg single ig.)?
A: The value was 28.18.

Q: What about the “MWT (g) 5 h” value (0.5 mg/kg single ig., x±s, n=5) of the same compound?
A: Its value is 5.61 ± 3.00 g.

Q: What about the “Pain threshold improvement rate 6h” value (0.5 mg/kg single ig.) of the same compound?
A: Its value is 24.02.

Q: What about the “MWT (g) 6h” value (0.5 mg/kg single ig., x±s, n=5) of the same compound?
A: Its value is 4.82 ± 1.07 g.

Q: And the duration of analgesia (0.5 mg/kg)?
A: The duration of analgesia was ≤ 4 h.

Q: What about the “MWT (g) After modeling” value (1 mg/kg group, x±s, n=5) of the same compound?
A: Its value is 7.28 ± 2.09 g.

Q: And the “Pain threshold improvement rate 2h” value (1 mg/kg single ig.)?
A: The value was 71.05.

Q: And the “MWT (g) 2h” value (1 mg/kg single ig., x±s, n=5)?
A: The value was 12.72 ± 3.12 g.

Q: And the “Pain threshold improvement rate 3 h” value (1 mg/kg single ig.)?
A: Its value is 58.89.

Q: What about the “Pain threshold improvement rate 4h” value (1 mg/kg single ig.) of the same compound?
A: The value was 59.53.

Q: What about the “MWT (g) 4 h” value (1 mg/kg single ig., x±s, n=5) of the same compound?
A: The value was 9.96 ± 4.93 g.

Q: And the “Pain threshold improvement rate 5 h” value (1 mg/kg single ig.)?
A: The value was 20.88.

Q: And the “MWT (g) 5 h” value (1 mg/kg single ig., x±s, n=5)?
A: The value was 5.10 ± 1.55 g.

Q: And the “Pain threshold improvement rate 6h” value (1 mg/kg single ig.)?
A: Its value is 9.51.

Q: What about the “MWT (g) 6h” value (1 mg/kg single ig., x±s, n=5) of the same compound?
A: Its value is 4.05 ± 0.66 g.

Q: And the duration of analgesia (1 mg/kg)?
A: Its duration of analgesia is ≤ 4 h.

Source: patent EP4692089A1, “NITROGEN-CONTAINING HETEROCYCLIC COMPOUND AS AAK1 INHIBITOR” (Alicorn Pharmaceutical Co., Ltd., priority 2023, dated 2024)
